Source: patent US9822115B2, “Nitrogen containing compounds and their use as antibacterial agents” (WOCKHARDT LIMITED, priority 2014, dated 2017)
Converted amounts (≈) assume the structure as drawn. Where two headings read alike, the source gives them in different places.

Assays:
[1] = system: K. pneumoniae S 21; test: Antibacterial activity, MIC by agar dilution (CLSI); format: cell-based; settings: Klebsiella pneumoniae, S21, Table 3
Procedure: (§1) The biological activity of representative compounds according to the invention against various bacterial strains was investigated. In a typical study, overnight grown bacterial cultures were diluted appropriately and inoculated on the agar media containing doubling dilutions of the test compounds. Observations for growth or no growth was performed after 16-20 hours of incubation at 35±2° C. in the ambient air. The overall procedure was performed as per Clinical and Laboratory Standards Institute (CLSI) recommendations, (Clinical and Laboratory Standards Institute (CLSI), Performance Standards for Antimicrobial Susceptibility Testing, 20th Informational Supplement, M07-A9, Volume 32, No. 2, 2012). Molten Mueller Hinton Agar (BD, USA) containing serial dilutions of each antibacterial agent were poured on to the plates and allowed to solidify. Appropriate suspensions from the freshly grown cultures were prepared in normal saline so that about 10^4 CFU/spot of the organism was delivered on to the drug containing agar plates using automated multipoint inoculator (Mast, UK). The plates were incubated in Biochemical oxygen demand (BOD) incubator at 37° C. for 18 hours and then examined for growth.
(§2) Table 3 details the antibacterial activity of representative compound of Formula (I), Sodium salt of (2S,5R)-Sulfuric acid mono-[2-(N′-(4-hydroxyphenyl-acetyl)-hydrazinocarbonyl)-7-oxo-1,6-diaza-bicyclo[3.2.1]oct-6-yl]ester (Compound of Example 1) and Sodium salt of (2S,5R)-Sulfuric acid mono-[2-(N′-(pyridine-2-yl-acetyl)-hydrazinocarbonyl)-7-oxo-1,6-diaza-bicyclo[3.2.1]oct-6-yl] ester (Compound of Example 8), against various Multi Drug Resistant (MDR) Gram-negative bacterial strains.

[2] = system: K. pneumoniae H 525; test: as above; format: cell-based; settings: Klebsiella pneumoniae, H525, Table 3
Procedure: as §1, §2

[3] = system: P. aeruginosa R 20; test: as above; format: cell-based; settings: Pseudomonas aeruginosa, R20, Table 3
Procedure: as §1, §2

[4] = system: E. coli 7 MP; test: as above; format: cell-based; settings: Escherichia coli, Table 3
Procedure: as §1, §2

[5] = system: C. frundaii 58 MP; test: as above; format: cell-based; settings: Table 3
Procedure: as §1, §2

[6] = system: K. pneumoniae B 88; test: as above; format: cell-based; settings: Klebsiella pneumoniae, B88, Table 3
Procedure: as §1, §2

[7] = system: E. coli NCTC 13351; test: as above; format: cell-based; settings: Escherichia coli, NCTC13351, Table 3
Procedure: as §1, §2

[8] = system: P. aeruginosa PAO1; test: as above; format: cell-based; settings: Pseudomonas aeruginosa, Table 3
Procedure: as §1, §2

[9] = system: E. cloacae M 20; test: as above; format: cell-based; settings: Enterobacter cloacae, M20, Table 3
Procedure: as §1, §2

[10] = system: E. coli M 49; test: as above; format: cell-based; settings: Escherichia coli, M49, Table 3
Procedure: as §1, §2

[11] = system: P. aeruginosa ATCC 27853; test: as above; format: cell-based; settings: Pseudomonas aeruginosa, ATCC27853, Table 3
Procedure: as §1, §2

[12] = system: E. coli NCTC 13352; test: as above; format: cell-based; settings: Escherichia coli, NCTC13352, Table 3
Procedure: as §1, §2

[13] = system: P. aeruginosa 2779; test: as above; format: cell-based; settings: Pseudomonas aeruginosa, Table 3
Procedure: as §1, §2

[14] = system: E. coli M 50; test: as above; format: cell-based; settings: Escherichia coli, M50, Table 3
Procedure: as §1, §2

[15] = system: E. coli NCTC 13353; test: Zone of inhibition, compound alone and in combination with ceftazidime (agar well); format: cell-based; settings: Escherichia coli, NCTC13353, E. coli NCTC 13353, read-out: Diameter of Zone of Inhibition; for zone of inhibition at 0.25 µg/disc: 0.25 μg/well; for zone of inhibition at 0.5 µg/disc: 0.5 μg/well; for zone of inhibition at 1 µg/disc: 1 μg/well
Procedure: (§3) Determination of antibacterial activity of combinations according to invention: In a typical experiment, two sets of plates containing growth media (Molten Mueller Hilton Agar) and bacterial strains were prepared. One set of plates was taken as control (without ceftazidime) and other set contained ceftazidime. The media was allowed to solidify and wells were punched later. A two-fold serial dilution range of each of the compounds according to invention was prepared and 50 μl of each of the dilution was added into the punched well. […] The Table 5 provides the antibacterial activity of the combination comprising compounds according to invention and ceftazidime.

[16] = system: E. coli M50; test: as above; format: cell-based; settings: Escherichia coli, M50, E. coli M50, read-out: Diameter of Zone of Inhibition; for zone of inhibition at 0.25 µg/disc: 0.25 μg/well; for zone of inhibition at 0.5 µg/disc: 0.5 μg/well; for zone of inhibition at 1 µg/disc: 1 μg/well
Procedure: as §3

[17] = system: E. coli NCTC 13353 (CTX-M15, OXA-1); test: Antibacterial activity, MIC by agar dilution (CLSI); format: cell-based; settings: Escherichia coli, read-out: MIC
In short: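 CLSI agar dilution on Mueller Hinton agar containing doubling compound dilutions, inoculated at about 10^4 CFU/spot from fresh cultures. Plates were incubated 18 h at 37 °C in ambient air before growth scoring. MIC is reported in mcg/ml.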

[18] = molecular target: T1, Class D beta-lactamase, A. baumannii NCTC 13301 (OXA 23) (Acinetobacter baumannii, UniProt Q9L4P2); test: Beta-lactamase enzyme inhibition (nitrocefin, crude enzyme); format: biochemical; settings: Class D A. baumannii NCTC 13301 (OXA 23); read-out: Beta-lactamase enzyme inhibition IC50
T1 construct: preincubated mixture of crude enzyme and the agents; endogenous in cells; host or cells: A. baumannii NCTC 13301
T1 sequence (Q9L4P2 18-273): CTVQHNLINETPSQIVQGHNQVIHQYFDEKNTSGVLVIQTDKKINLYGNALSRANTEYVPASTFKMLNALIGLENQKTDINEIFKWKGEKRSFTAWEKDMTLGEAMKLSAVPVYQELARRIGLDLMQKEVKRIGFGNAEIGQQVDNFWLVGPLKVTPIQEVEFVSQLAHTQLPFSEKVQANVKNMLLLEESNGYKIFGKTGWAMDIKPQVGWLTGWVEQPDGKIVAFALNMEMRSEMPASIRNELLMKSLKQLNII
In short: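 Crude enzyme preincubated with inhibitor 10 min at 37 °C, then nitrocefin (100 uM) added for 5 min. Absorbance read at 485 nm; IC50 obtained from sigmoidal dose-response fit of absorbance versus concentration.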

[19] = Compound + Ceftazidime (10 μg/ml)
[20] = NCTC13353, Table 2, E. Coli NCTC 13353 (CTX-M15, OXA-1)
[21] = NCTC13353, Table 3, E. coli NCTC 13353

SMILES | MIC [1] | MIC [2] | MIC [3] | MIC [4] | MIC [5] | MIC [6] | MIC [7] | MIC [8] | MIC [9] | MIC [10] | MIC [11] | MIC [12] | MIC [13] | MIC [14] | zone of inhibition at 0.25 µg/disc [15, 19] | zone of inhibition at 0.5 µg/disc [15, 19] | zone of inhibition at 1 µg/disc [15, 19] | zone of inhibition at […] [15, 19] | zone of inhibition at 0.25 µg/disc ([15]; Compound alone) | zone of inhibition at 0.5 µg/disc ([15]; Compound alone) | other results
NCCOc1ccccc1CC(=O)NNC(=O)[C@@H]1CC[C@@H]2CN1C(=O)N2OS(=O)(=O)O [Example 2, (2S,5R)-Sulfuric Acid mono-[2-(N′-{2-[2-(2-amino-ethoxy)-phenyl]-acetyl}-hydrazinocarbonyl)-7-oxo-1,6-diaza-bicyclo[3.2.1]oct-6-yl]ester] | 2 mg/L (≈ 4.37 µM) | 1 mg/L (≈ 2.19 µM) | > 32 mg/L | 2 mg/L (≈ 4.37 µM) | 16 mg/L (≈ 35 µM) | > 32 mg/L | 1 mg/L (≈ 2.19 µM) | > 32 mg/L | 2 mg/L (≈ 4.37 µM) | 2 mg/L (≈ 4.37 µM) | > 32 mg/L | 1 mg/L (≈ 2.19 µM) | > 32 mg/L | 1 mg/L (≈ 2.19 µM) | 21 mm | 24 mm | 28 mm | 17 mm | 11 mm | 14 mm | zone of inhibition at 1 µg/disc ([15]; Compound alone): 16 mm; zone of inhibition at 0.25 µg/disc [16, 19]: 13 mm; zone of inhibition at 0.5 µg/disc [16, 19]: 16.5 mm; zone of inhibition at 1 µg/disc [16, 19]: 18.5 mm; zone of inhibition at […] [16, 19]: 10 mm; zone of inhibition at 0.25 µg/disc ([16]; Compound alone): 10 mm; zone of inhibition at 0.5 µg/disc ([16]; Compound alone): 14 mm; zone of inhibition at 1 µg/disc ([16]; Compound alone): 16 mm; MIC [17, 20]: 1 mg/L (≈ 2.19 µM); MIC [17, 21]: 0.5 mg/L (≈ 1.09 µM); IC50 [18]: 3.77 µM
O=C(Cc1ccc(O)cc1)NNC(=O)[C@@H]1CC[C@@H]2CN1C(=O)N2OS(=O)(=O)[O-].[Na+] [Example 1, Sodium Salt of (2S,5R)-Sulfuric Acid mono-[2-(N′-(4-hydroxyphenyl-acetyl)-hydrazinocarbonyl)-7-oxo-1,6-diaza-bicyclo[3.2.1]oct-6-yl]ester] | 2 mg/L | 0.5 mg/L | > 32 mg/L | 1 mg/L | 32 mg/L | 0.5 mg/L | 0.25 mg/L | > 32 mg/L | 1 mg/L | 2 mg/L | > 32 mg/L | 0.25 mg/L | > 32 mg/L | 0.5 mg/L | 18 mm | 21 mm | 25 mm | 16 mm | 14.5 mm | 15.5 mm | zone of inhibition at 1 µg/disc ([15]; Compound alone): 17 mm; zone of inhibition at 0.25 µg/disc [16, 19]: 16 mm; zone of inhibition at 0.5 µg/disc [16, 19]: 19 mm; zone of inhibition at 1 µg/disc [16, 19]: 22 mm; zone of inhibition at […] [16, 19]: 13 mm; zone of inhibition at 0.25 µg/disc ([16]; Compound alone): 12 mm; zone of inhibition at 0.5 µg/disc ([16]; Compound alone): 13.5 mm; zone of inhibition at 1 µg/disc ([16]; Compound alone): 16 mm; MIC [17, 20]: 0.5 mg/L; MIC [17, 21]: 0.5 mg/L; IC50 [18]: 0.315 µM
